#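 Cultured in 96-well plates, cells were exposed to test compound for 48 hours across five concentrations. Abbreviation: GI50, concentration required for 50% inhibition of growth. Definition used: TGI = concentration required for complete inhibition of growth.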
# Columns and labels:
# Test in all cases: NCI anticancer screen, dose series, 48 h
# 786-0 renal = tested on: 786-0 renal
# A498 renal = tested on: A498 renal
# A549 NSCLC = tested on: A549 NSCLC
# ACHN renal = tested on: ACHN renal
# BT-549 breast = tested on: BT-549 breast
# CAKI-1 renal = tested on: CAKI-1 renal
# CCRF-CEM leukemia = tested on: CCRF-CEM leukemia
# COLO 205 colon = tested on: COLO 205 colon
# DU-145 prostate = tested on: DU-145 prostate
# HCC-2998 colon = tested on: HCC-2998 colon
# HCT-116 colon = tested on: HCT-116 colon
# HCT-15 colon = tested on: HCT-15 colon
# HL-60(TB) leukemia = tested on: HL-60(TB) leukemia
# HOP-62 NSCLC = tested on: HOP-62 NSCLC
# HOP-92 NSCLC = tested on: HOP-92 NSCLC
# HT29 colon = tested on: HT29 colon
# IGROV1 ovarian = tested on: IGROV1 ovarian
# KM12 colon = tested on: KM12 colon
# LOX IMVI melanoma = tested on: LOX IMVI melanoma
# M14 melanoma = tested on: M14 melanoma
# MDA-MB-231 breast = tested on: MDA-MB-231 breast
# MDA-MB-435 = tested on: MDA-MB-435
# MDA-N = tested on: MDA-N
# MOLT-4 leukemia = tested on: MOLT-4 leukemia
# NCI-H226 lung = tested on: NCI-H226 lung
# NCI-H23 lung = tested on: NCI-H23 lung
# NCI-H460 lung = tested on: NCI-H460 lung
# NCI/ADR-RES ovarian = tested on: NCI/ADR-RES ovarian
# OVCAR-3 ovarian = tested on: OVCAR-3 ovarian
# OVCAR-4 ovarian = tested on: OVCAR-4 ovarian
# OVCAR-5 ovarian = tested on: OVCAR-5 ovarian
# OVCAR-8 ovarian = tested on: OVCAR-8 ovarian
# PC-3 prostate = tested on: PC-3 prostate
# RPMI-8226 leukemia = tested on: RPMI-8226 leukemia
# RXF 393 renal = tested on: RXF 393 renal
# SK-MEL-2 melanoma = tested on: SK-MEL-2 melanoma
# SK-MEL-28 melanoma = tested on: SK-MEL-28 melanoma
# SK-MEL-5 melanoma = tested on: SK-MEL-5 melanoma
# SK-OV-3 ovarian = tested on: SK-OV-3 ovarian
# SN12C renal = tested on: SN12C renal
# SNB-19 CNS = tested on: SNB-19 CNS
# SNB-75 CNS = tested on: SNB-75 CNS
# SR leukemia = tested on: SR leukemia
# SW-620 colon = tested on: SW-620 colon
# T-47D breast = tested on: T-47D breast
# U251 CNS = tested on: U251 CNS
# UACC-257 melanoma = tested on: UACC-257 melanoma
# UACC-62 melanoma = tested on: UACC-62 melanoma
# EKVX NSCLC = tested on: EKVX NSCLC
# MCF7 breast = tested on: MCF7 breast
# SF-295 CNS = tested on: SF-295 CNS
# SF-539 CNS = tested on: SF-539 CNS
# TK-10 renal = tested on: TK-10 renal
# UO-31 renal = tested on: UO-31 renal
# K-562 leukemia = tested on: K-562 leukemia
# MALME-3M melanoma = tested on: MALME-3M melanoma
# NCI-H522 lung = tested on: NCI-H522 lung
# SF-268 CNS = tested on: SF-268 CNS
structure (smiles),measurement,setting,value
C=CCc1cccc2cc(C(N)=O)c(=N)oc12,TGI,786-0 renal,> 100000 nM
same,TGI,A498 renal,> 100000 nM
same,TGI,A549 NSCLC,> 100000 nM
same,TGI,ACHN renal,> 100000 nM
same,TGI,BT-549 breast,> 100000 nM
same,TGI,CAKI-1 renal,> 100000 nM
same,TGI,CCRF-CEM leukemia,> 100000 nM
same,TGI,COLO 205 colon,> 100000 nM
same,TGI,DU-145 prostate,> 100000 nM
same,TGI,HCC-2998 colon,> 100000 nM
same,TGI,HCT-116 colon,> 100000 nM
same,TGI,HCT-15 colon,> 100000 nM
same,TGI,HL-60(TB) leukemia,> 100000 nM
same,TGI,HOP-62 NSCLC,> 100000 nM
same,TGI,HOP-92 NSCLC,> 100000 nM
same,TGI,HT29 colon,> 100000 nM
same,TGI,IGROV1 ovarian,90300 nM
same,TGI,KM12 colon,> 100000 nM
same,TGI,LOX IMVI melanoma,> 100000 nM
same,TGI,M14 melanoma,> 100000 nM
same,TGI,MDA-MB-231 breast,> 100000 nM
same,TGI,MDA-MB-435,> 100000 nM
same,TGI,MDA-N,> 100000 nM
same,TGI,MOLT-4 leukemia,> 100000 nM
same,TGI,NCI-H226 lung,> 100000 nM
same,TGI,NCI-H23 lung,> 100000 nM
same,TGI,NCI-H460 lung,> 100000 nM
same,TGI,NCI/ADR-RES ovarian,> 100000 nM
same,TGI,OVCAR-3 ovarian,> 100000 nM
same,TGI,OVCAR-4 ovarian,> 100000 nM
same,TGI,OVCAR-5 ovarian,> 100000 nM
same,TGI,OVCAR-8 ovarian,> 100000 nM
same,TGI,PC-3 prostate,> 100000 nM
same,TGI,RPMI-8226 leukemia,> 100000 nM
same,TGI,RXF 393 renal,> 100000 nM
same,TGI,SK-MEL-2 melanoma,> 100000 nM
same,TGI,SK-MEL-28 melanoma,> 100000 nM
same,TGI,SK-MEL-5 melanoma,> 100000 nM
same,TGI,SK-OV-3 ovarian,> 100000 nM
same,TGI,SN12C renal,> 100000 nM
same,TGI,SNB-19 CNS,> 100000 nM
same,TGI,SNB-75 CNS,> 100000 nM
same,TGI,SR leukemia,> 100000 nM
same,TGI,SW-620 colon,> 100000 nM
same,TGI,T-47D breast,> 100000 nM
same,TGI,U251 CNS,> 100000 nM
same,TGI,UACC-257 melanoma,> 100000 nM
same,TGI,UACC-62 melanoma,> 100000 nM
CC(=O)C1C(=O)C(=O)N(c2ccc(Cl)c(Cl)c2)C1=O (configuration not stated),TGI,786-0 renal,> 100000 nM
same,TGI,A549 NSCLC,> 100000 nM
same,TGI,ACHN renal,> 100000 nM
same,TGI,BT-549 breast,> 100000 nM
same,TGI,CAKI-1 renal,> 100000 nM
same,TGI,COLO 205 colon,> 100000 nM
same,TGI,DU-145 prostate,> 100000 nM
same,TGI,EKVX NSCLC,> 100000 nM
same,TGI,HCC-2998 colon,> 100000 nM
same,TGI,HCT-116 colon,> 100000 nM
same,TGI,HCT-15 colon,> 100000 nM
same,TGI,HL-60(TB) leukemia,> 100000 nM
same,TGI,HOP-62 NSCLC,> 100000 nM
same,TGI,HOP-92 NSCLC,> 100000 nM
same,TGI,HT29 colon,> 100000 nM
same,TGI,IGROV1 ovarian,> 100000 nM
same,TGI,KM12 colon,> 100000 nM
same,TGI,LOX IMVI melanoma,> 100000 nM
same,TGI,M14 melanoma,> 100000 nM
same,TGI,MCF7 breast,> 100000 nM
same,TGI,MDA-MB-231 breast,> 100000 nM
same,TGI,MDA-MB-435,> 100000 nM
same,TGI,MDA-N,> 100000 nM
same,TGI,MOLT-4 leukemia,> 100000 nM
same,TGI,NCI-H226 lung,> 100000 nM
same,TGI,NCI-H23 lung,> 100000 nM
same,TGI,NCI-H460 lung,> 100000 nM
same,TGI,NCI/ADR-RES ovarian,> 100000 nM
same,TGI,OVCAR-3 ovarian,> 100000 nM
same,TGI,OVCAR-5 ovarian,> 100000 nM
same,TGI,OVCAR-8 ovarian,> 100000 nM
same,TGI,PC-3 prostate,> 100000 nM
same,TGI,SF-295 CNS,> 100000 nM
same,TGI,SF-539 CNS,> 100000 nM
same,TGI,SK-MEL-2 melanoma,> 100000 nM
same,TGI,SK-MEL-28 melanoma,> 100000 nM
same,TGI,SK-MEL-5 melanoma,> 100000 nM
same,TGI,SK-OV-3 ovarian,> 100000 nM
same,TGI,SN12C renal,> 100000 nM
same,TGI,SNB-19 CNS,> 100000 nM
same,TGI,SNB-75 CNS,> 100000 nM
same,TGI,SW-620 colon,> 100000 nM
same,TGI,T-47D breast,> 100000 nM
same,TGI,TK-10 renal,> 100000 nM
same,TGI,U251 CNS,> 100000 nM
same,TGI,UACC-257 melanoma,> 100000 nM
same,TGI,UACC-62 melanoma,> 100000 nM
same,TGI,UO-31 renal,> 100000 nM
CC1OC(OC2C(O)CC(OC3C(O)CC(OC4CCC5(C)C(CCC6C5CCC5(C)C(C7=CC(=O)OC7)CCC65O)C4)OC3C)OC2C)CC(O)C1O (configuration not stated),GI50,786-0 renal,< 12.4 nM
same,TGI,786-0 renal,21.9 nM
same,GI50,A498 renal,< 10 nM
same,TGI,A498 renal,30.1 nM
same,TGI,A549 NSCLC,29.5 nM
same,TGI,ACHN renal,106 nM
same,TGI,BT-549 breast,61.8 nM
same,TGI,CAKI-1 renal,52.7 nM
same,TGI,COLO 205 colon,142 nM
same,GI50,DU-145 prostate,< 12 nM
same,TGI,DU-145 prostate,< 20.4 nM
same,TGI,EKVX NSCLC,80.9 nM
same,TGI,HCC-2998 colon,584 nM
same,GI50,HCT-116 colon,11 nM
same,TGI,HCT-116 colon,100 nM
same,TGI,HCT-15 colon,86.7 nM
same,GI50,HL-60(TB) leukemia,45.1 nM
same,TGI,HL-60(TB) leukemia,415 nM
same,TGI,HOP-62 NSCLC,41.7 nM
same,TGI,HOP-92 NSCLC,190 nM
same,TGI,HT29 colon,123 nM
same,TGI,IGROV1 ovarian,542 nM
same,TGI,K-562 leukemia,204 nM
same,TGI,KM12 colon,209 nM
same,GI50,LOX IMVI melanoma,< 12.1 nM
same,TGI,LOX IMVI melanoma,58.7 nM
same,GI50,M14 melanoma,95.6 nM
same,TGI,M14 melanoma,268 nM
same,TGI,MALME-3M melanoma,75.6 nM
same,TGI,MCF7 breast,> 100000 nM
same,TGI,MDA-MB-231 breast,786 nM
same,TGI,MDA-MB-435,147 nM
same,TGI,MDA-N,138 nM
same,GI50,MOLT-4 leukemia,165 nM
same,TGI,NCI-H226 lung,174 nM
same,TGI,NCI-H23 lung,51.7 nM
same,GI50,NCI-H460 lung,< 11.6 nM
same,TGI,NCI-H460 lung,< 18.7 nM
same,TGI,NCI-H522 lung,22.4 nM
same,TGI,NCI/ADR-RES ovarian,293 nM
same,TGI,OVCAR-3 ovarian,48.5 nM
same,TGI,OVCAR-5 ovarian,148 nM
same,GI50,OVCAR-8 ovarian,< 18.7 nM
same,TGI,OVCAR-8 ovarian,70.8 nM
same,TGI,PC-3 prostate,170 nM
same,TGI,RPMI-8226 leukemia,1470 nM
same,TGI,RXF 393 renal,78.5 nM
same,TGI,SF-268 CNS,61.4 nM
same,TGI,SF-295 CNS,99.8 nM
same,TGI,SF-539 CNS,21.9 nM
same,TGI,SK-MEL-2 melanoma,447 nM
same,TGI,SK-MEL-28 melanoma,423 nM
same,TGI,SK-MEL-5 melanoma,62.4 nM
same,TGI,SK-OV-3 ovarian,143 nM
same,TGI,SN12C renal,130 nM
same,TGI,SNB-19 CNS,304 nM
same,TGI,SNB-75 CNS,653 nM
same,TGI,SW-620 colon,282 nM
same,GI50,T-47D breast,56 nM
same,TGI,T-47D breast,1730 nM
same,TGI,TK-10 renal,87.6 nM
same,GI50,U251 CNS,< 17.7 nM
same,TGI,U251 CNS,46.7 nM
same,TGI,UACC-257 melanoma,219 nM
same,TGI,UACC-62 melanoma,152 nM
same,TGI,UO-31 renal,151 nM

# Reference: PubChem BioAssay (NCI)
